Experimental data as given in publication PMC10313808, “Lipoxygenase inhibitory synthetic derivatives of methyl gallate regulate gene expressions of COX-2 and cytokines to reduce animal model arthritis” (Scientific Reports, 2023).

Experiments:
[1] = test system: FCA-induced arthritis; test: FCA-induced arthritis: hind paw volume; format: in vivo, Sprague–Dawley (SD) rats; details: for Percentage of inhibition (paw oedema) / Paw volume (mL) (mean ± SEM) 9th day / Paw volume (mL) (mean ± SEM) 18th day / Paw volume (mL) (mean ± SEM) 28th day / Paw volume (mL) (mean ± SEM) Initial day: FCA rats; for amount required relative to diclofenac for the same level of effect: in vivo FCA arthritis studies
Description: (§1) Chronic inflammation induced by Freund's Complete Adjuvant contains a suspension of heat-killed Mycobacterium tuberculosis in the vehicle (Chondrex, Labex Corporation). 100 μL of FCA (10 mg/mL) was injected intradermally to the left-hand paw of SD rats[42]. […] Induction of inflammation became chronic by 9–12 days and then rats were divided into 7 groups having 6 rats in each group. Everything possible was done to minimize the suffering of experimental animals. Minimum number of rats only were drafted to generate reliable data. 42 rats were randomly allocated into seven groups (6 × 7).
(§2) Group I (n = 6) served as normal rats that received an equal volume of vehicle control. Group II (n = 6) was arthritic model control treated with vehicle only. Group III (n = 6) was arthritic control which received the diclofenac (10 mg.kg^–1). Groups IV (n = 6), V (n = 6), VI (n = 6) and VII (n = 6) were treated with a low and high dose of methyl gallate (20 mg.kg^–1, 40 mg.kg^–1) and MGSD 1 (1 mg.kg^–1, 10 mg.kg^–1). The drugs were orally administered through oral gavage daily in PBS vehicle for 28 days.
By a plethysmometer the rat hind paw volume was measured from the initial day to final day (28th day) with successive intervals of 9 days, before and after FCA injection. The inhibition was calculated by the formula given below. Percentageinhibition=1-Meanchangesinpawvolumeoftreatedrat/Meanchangesinpawvolumeofuntreatedrat×100.

[2] = target: T1, Lipoxidase from Glycine max (15- LOX) (Glycine max, UniProt P08170); test: In-vitro LOX enzyme inhibition assay (spectrophotometric, 234 nm); format: biochemical
T1 construct: purchased Sigma (Sigma-Aldrich, UK)
T1 sequence (P08170 1-839): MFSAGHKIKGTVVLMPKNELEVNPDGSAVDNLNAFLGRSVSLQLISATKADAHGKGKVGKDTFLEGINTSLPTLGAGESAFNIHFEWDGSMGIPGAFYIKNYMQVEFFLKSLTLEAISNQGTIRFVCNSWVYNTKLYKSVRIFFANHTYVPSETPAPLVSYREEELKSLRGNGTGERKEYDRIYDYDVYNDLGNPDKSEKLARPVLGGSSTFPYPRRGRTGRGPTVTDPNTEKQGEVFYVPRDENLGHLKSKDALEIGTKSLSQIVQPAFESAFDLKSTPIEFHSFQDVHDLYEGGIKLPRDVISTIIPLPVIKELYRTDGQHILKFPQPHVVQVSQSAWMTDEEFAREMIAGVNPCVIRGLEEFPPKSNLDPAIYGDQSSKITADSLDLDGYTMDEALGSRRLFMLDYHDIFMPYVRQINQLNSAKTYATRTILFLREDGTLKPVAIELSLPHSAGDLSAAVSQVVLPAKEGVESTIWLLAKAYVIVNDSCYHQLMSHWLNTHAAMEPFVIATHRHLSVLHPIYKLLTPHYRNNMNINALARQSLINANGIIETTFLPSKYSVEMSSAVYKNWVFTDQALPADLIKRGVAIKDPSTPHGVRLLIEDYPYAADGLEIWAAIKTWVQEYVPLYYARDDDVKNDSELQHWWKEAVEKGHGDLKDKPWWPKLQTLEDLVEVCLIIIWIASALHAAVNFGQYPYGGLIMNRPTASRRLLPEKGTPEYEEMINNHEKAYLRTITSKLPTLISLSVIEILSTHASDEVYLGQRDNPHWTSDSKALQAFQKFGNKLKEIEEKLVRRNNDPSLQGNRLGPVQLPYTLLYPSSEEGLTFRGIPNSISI
Description: The LOX inhibition assays were performed with MGSDs. The inhibitory activity was measured by a modified spectrophotometric method[16],[39]. The plant LOX pathway is in many respects equivalent to the ‘arachidonic acid cascades’ in animals. For this reason, the in vitro inhibition of LOX constitutes a good model for the screening of compounds with anti-inflammatory potential[40],[41]. LOX (Lipoxidase from Glycine max (15- LOX); EC 1.13.11.12) type I-B (Soybean), and linoleic acid were purchased from Sigma (Sigma-Aldrich, UK) and used without further purification. Enzyme solution of 1.03 µM was prepared in 0.2 mM borate buffer, pH 8.5. The substrate, linoleic acid solution of 0.3 mM was also prepared in the borate buffer at the same pH. […] The final concentration of MGSDs used for the analysis was 20 µM. The assay mixture was made of 50 µL of LOX, 50 µL of the test solution and 360 µL of the substrate. The final volume was made up to 2 mL with corresponding borate buffer quantity. The activity of LOX was measured on the formation of […], which was monitored at 234 nm on spectrophotometer, (HITACHI U 2900, Japan). The same procedure was repeated with triplicate for the confirmation of LOX inhibitory activity[16],[39].

[3] = test system: FCA-induced arthritis; test: FCA-induced arthritis: organ index (liver, spleen); format: in vivo, Sprague–Dawley (SD) rats; details: FCA rats, end of experiment
Description: as §1, §2
At the end of the experiments, animals were euthanized using ketamine injection. The liver and spleen were removed at the end of the experiment and weighed. The index of the organs was expressed as the percentage (%) wet weight of organ versus body weight. The organ indexes were calculated by using the following formula Organindex=Weightoforgang/Bodyweightg×100.

Which results are given for `COC(=O)c1cc(O)c(O)c(O)c1` [Methyl gallate]?
Percentage of inhibition (paw oedema) ([1]; 20 mg.kg^−1 oral): 45%; Paw volume (mL) (mean ± SEM) 9th day ([1]; 20 mg.kg^−1 oral): 1.32 ± 0.16 mL; Paw volume (mL) (mean ± SEM) 18th day ([1]; 20 mg.kg^−1 oral): 1.24 ± 0.22 mL; Paw volume (mL) (mean ± SEM) 28th day ([1]; 20 mg.kg^−1 oral): 1.18 ± 0.08 mL; Paw volume (mL) (mean ± SEM) Initial day ([1]; 20 mg.kg^−1 oral): 0.56 ± 0.05 mL; Percentage of inhibition (paw oedema) ([1]; 40 mg.kg^−1 oral): 37%; Paw volume (mL) (mean ± SEM) 9th day ([1]; 40 mg.kg^−1 oral): 1.66 ± 0.18 mL; Paw volume (mL) (mean ± SEM) 18th day ([1]; 40 mg.kg^−1 oral): 1.56 ± 0.24 mL; Paw volume (mL) (mean ± SEM) 28th day ([1]; 40 mg.kg^−1 oral): 1.4 ± 0.09 mL; Paw volume (mL) (mean ± SEM) Initial day ([1]; 40 mg.kg^−1 oral): 0.50 ± 0.05 mL; Percentage of inhibition (paw oedema) ([1]; 40 mg.kg^−1 oral, listed as methyl gallate): 35–45%; amount required relative to diclofenac for the same level of effect [1]: approximately five times of diclofenac; inhibition at 200 µM ([2]; 0.2 mM compound): 61 ± 1.35%; Organ index (%) Liver ([3]; 20 mg.kg^−1 oral): 3.59 ± 0.03 %; Organ index (%) Spleen ([3]; 20 mg.kg^−1 oral): 0.27 ± 0.01%; Organ index (%) Liver ([3]; 40 mg.kg^−1 oral): 3.63 ± 0.11 %; Organ index (%) Spleen ([3]; 40 mg.kg^−1 oral): 0.28 ± 0.02%

`O=C(O)COc1cc(C(=O)O)cc(OCC(=O)O)c1OCC(=O)O` [MGSD 1, 2,2′,2″-((5-carboxybenzene-1,2,3-triyl)tris(oxy)) tri acetic acid] was tested. Which “Percentage of inhibition (paw oedema)” value ([1]; 1 mg.kg^−1 oral) did it give?
The value was 68%.

And the “Paw volume (mL) (mean ± SEM) 9th day” value ([1]; 1 mg.kg^−1 oral)?
The value was 0.97 ± 0.16 mL.

What about the “Paw volume (mL) (mean ± SEM) 18th day” value ([1]; 1 mg.kg^−1 oral) of the same molecule?
Its value is 0.68 ± 0.22 mL.

What about the “Paw volume (mL) (mean ± SEM) 28th day” value ([1]; 1 mg.kg^−1 oral) of the same molecule?
Its value is 0.59 ± 0.08 mL.

And the “Paw volume (mL) (mean ± SEM) Initial day” value ([1]; 1 mg.kg^−1 oral)?
The value was 0.50 ± 05 mL.

And the “Percentage of inhibition (paw oedema)” value ([1]; 10 mg.kg^−1 oral)?
Its value is 70%.

And the “Paw volume (mL) (mean ± SEM) 9th day” value ([1]; 10 mg.kg^−1 oral)?
Its value is 1.05 ± 0.16 mL.

And the “Paw volume (mL) (mean ± SEM) 18th day” value ([1]; 10 mg.kg^−1 oral)?
Its value is 0.69 ± 0.22 mL.

What about the “Paw volume (mL) (mean ± SEM) 28th day” value ([1]; 10 mg.kg^−1 oral) of the same molecule?
Its value is 0.56 ± 0.08 mL.

What about the “Paw volume (mL) (mean ± SEM) Initial day” value ([1]; 10 mg.kg^−1 oral) of the same molecule?
Its value is 0.50 ± 0.05 mL.

And the “amount required relative to diclofenac for the same level of effect” value [1]?
The value was “approximately 1/12”.

What about the inhibition at 20 µM ([2]; 20 μM compound) of the same molecule?
The inhibition at 20 µM was 70 ± 3.45%.

And the “Organ index (%) Liver” value ([3]; 1 mg.kg^−1 oral)?
The value was 3.21 ± 0.12%.

What about the “Organ index (%) Spleen” value ([3]; 1 mg.kg^−1 oral) of the same molecule?
Its value is 0.24 ± 0.00%.

What about the “Organ index (%) Liver” value ([3]; 10 mg.kg^−1 oral) of the same molecule?
The value was 3.18 ± 0.48%.

And the “Organ index (%) Spleen” value ([3]; 10 mg.kg^−1 oral)?
The value was 0.22 ± 0.00%.
